# Data as given in patent US20200199102A1, “COMPOUNDS THAT PARTICIPATE IN COOPERATIVE BINDING AND USES THEREOF” (Revolution Medicines, Inc., priority 2017, published 2020).
# Where a SMILES comes first, the peptide text is derived from it. [ ]: non-standard residue; d: D form. MeBmt = C/C=C/C[C@@H](C)[C@@H](O)[C@H](NC)C(=O)O; NMeY = CN[C@@H](Cc1ccc(O)cc1)C(=O)O; NMeF = CN[C@@H](Cc1ccccc1)C(=O)O; NMeI = CC[C@H](C)[C@H](NC)C(=O)O; NMeL = CN[C@@H](CC(C)C)C(=O)O; NMeNle = CCCC[C@H](NC)C(=O)O; Tle = CC(C)(C)[C@H](N)C(=O)O; NMeNva = CCC[C@H](NC)C(=O)O; NMeV = CN[C@H](C(=O)O)C(C)C; NMeA = CN[C@@H](C)C(=O)O; dNMeA = CN[C@H](C)C(=O)O; Abu = CC[C@H](N)C(=O)O; Sar = CNCC(=O)O
# Target: T1, Cyclophilin A (Homo sapiens, UniProt P62937)
# T1 construct: made in house
# Test: AlphaLISA inhibition of binding of biotinylated Cyclosporin A to FLAG tagged Cyclophilin A
# Conditions: for % signal: AlphaLISA signal; for % signal / % inhibition of CsA binding to Cyclophilin A: test concentration not given; for IC50: read-out: IC50 value of CsA binding to Cyclophilin A
# Method in brief: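 Inhibition of biotin-CsA binding to FLAG-tagged Cyclophilin A read by AlphaLISA (ex 680, em 615 nm). Working stocks were 6 nM biotinylated CsA and 25 nM FLAG-CypA; beads and compound were combined first for 30 min, then protein added for 60 min, all at room temperature in the dark, with DMSO and cyclosporin A controls.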
# T1 sequence (P62937 whole entry, species assumed): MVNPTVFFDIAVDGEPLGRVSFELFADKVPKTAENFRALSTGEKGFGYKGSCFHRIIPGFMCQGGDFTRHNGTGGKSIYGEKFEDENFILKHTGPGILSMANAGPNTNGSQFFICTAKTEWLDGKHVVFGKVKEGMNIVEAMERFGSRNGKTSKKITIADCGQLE
% signal,IC50,% inhibition of CsA binding to Cyclophilin A,Compound
13.43%,< 2000 nM,86.57%,C/C=C/C[C@@H](C)[C@@H](O)[C@H]1C(=O)N[C@@H](CC)C(=O)N(C)CC(=O)N(C)[C@H](C)C(=O)N[C@@H](C(C)C)C(=O)N(C)[C@@H](C)C(=O)N[C@@H](C)C(=O)N[C@H](C)C(=O)N(C)[C@@H](CC(C)C)C(=O)N(C)[C@@H](CC(C)C)C(=O)N(C)[C@@H](C(C)C)C(=O)N1C [Compound C3] (cyclo([MeBmt][Abu][Sar][dNMeA]V[NMeA]A[dA][NMeL][NMeL][NMeV]))
0.56%,< 2000 nM,99.44%,C/C=C/C[C@@H](C)[C@@H](O)[C@H]1C(=O)N[C@@H](CC)C(=O)N(C)CC(=O)N(C)[C@@H](C)C(=O)N[C@@H](CC(C)C)C(=O)N(C)[C@@H](C)C(=O)N[C@@H](C)C(=O)N[C@H](C)C(=O)N(C)[C@@H](CC(C)C)C(=O)N(C)[C@@H](CC(C)C)C(=O)N(C)[C@@H](C(C)C)C(=O)N1C [Compound C10] (cyclo([MeBmt][Abu][Sar][NMeA]L[NMeA]A[dA][NMeL][NMeL][NMeV]))
20.46%,< 2000 nM,79.54%,C/C=C/C[C@@H](C)[C@@H](O)[C@H]1C(=O)N[C@@H](CC)C(=O)N(C)CC(=O)N(C)[C@@H](CCCC)C(=O)N[C@@H](CC(C)C)C(=O)N(C)[C@@H](CC(C)C)C(=O)N[C@@H](CC(C)C)C(=O)N[C@H](C)C(=O)N(C)[C@@H](CC(C)C)C(=O)N(C)[C@@H](CC(C)C)C(=O)N(C)[C@@H](C(C)C)C(=O)N1C [Compound C68] (cyclo([MeBmt][Abu][Sar][NMeNle]L[NMeL]L[dA][NMeL][NMeL][NMeV]))
7.29%,< 2000 nM,92.71%,C/C=C/C[C@@H](C)[C@@H](O)[C@H]1C(=O)N[C@@H](CC)C(=O)N(C)CC(=O)N(C)[C@@H](CC(C)C)C(=O)N[C@@H](C(C)C)C(=O)N(C)[C@@H](C)C(=O)N[C@@H](C)C(=O)N[C@H](C)C(=O)N(C)[C@@H](CC(C)C)C(=O)N(C)[C@@H](CC(C)C)C(=O)N(C)[C@@H](C(C)C)C(=O)N1C [Compound C6]
−0.01%,< 2000 nM,100.01%,C/C=C/C[C@@H](C)[C@@H](O)[C@H]1C(=O)N[C@@H](CC)C(=O)N(C)CC(=O)N(C)[C@@H](C(C)C)C(=O)N[C@@H](C(C)C)C(=O)N(C)[C@@H](CC(C)C)C(=O)N[C@@H](CC(C)C)C(=O)N[C@H](C)C(=O)N(C)[C@@H](CC(C)C)C(=O)N(C)[C@@H](CC(C)C)C(=O)N(C)[C@@H](C(C)C)C(=O)N1C [Compound C53] (cyclo([MeBmt][Abu][Sar][NMeV]V[NMeL]L[dA][NMeL][NMeL][NMeV]))
5.94%,< 2000 nM,94.06%,C/C=C/C[C@@H](C)[C@@H](O)[C@H]1C(=O)N[C@@H](CC)C(=O)N(C)CC(=O)N(C)[C@@H](Cc2ccc(O)cc2)C(=O)N[C@@H](C(C)C)C(=O)N(C)[C@@H](C)C(=O)N[C@@H](CC(C)C)C(=O)N[C@H](C)C(=O)N(C)[C@@H](CC(C)C)C(=O)N(C)[C@@H](CC(C)C)C(=O)N(C)[C@@H](C(C)C)C(=O)N1C [Compound C88] (cyclo([MeBmt][Abu][Sar][NMeY]V[NMeA]L[dA][NMeL][NMeL][NMeV]))
10.95%,< 2000 nM,89.05%,C/C=C/C[C@@H](C)[C@@H](O)[C@H]1C(=O)N[C@@H](CC)C(=O)N(C)CC(=O)N(C)[C@@H](CCC)C(=O)N[C@@H](CC(C)C)C(=O)N(C)[C@@H](CC(C)C)C(=O)N[C@@H](CC(C)C)C(=O)N[C@H](C)C(=O)N(C)[C@@H](CC(C)C)C(=O)N(C)[C@@H](CC(C)C)C(=O)N(C)[C@@H](C(C)C)C(=O)N1C [Compound C66] (cyclo([MeBmt][Abu][Sar][NMeNva]L[NMeL]L[dA][NMeL][NMeL][NMeV]))
6.46%,< 2000 nM,93.54%,C/C=C/C[C@@H](C)[C@@H](O)[C@H]1C(=O)N[C@@H](CC)C(=O)N(C)CC(=O)N(C)[C@@H](CCC)C(=O)N[C@@H](C(C)C)C(=O)N(C)[C@@H](C)C(=O)N[C@@H](CC(C)C)C(=O)N[C@H](C)C(=O)N(C)[C@@H](CC(C)C)C(=O)N(C)[C@@H](CC(C)C)C(=O)N(C)[C@@H](C(C)C)C(=O)N1C [Compound C90] (cyclo([Abu][Sar][NMeNva]V[NMeA]L[dA][NMeL][NMeL][NMeV][MeBmt]))
0.70%,< 2000 nM,–,C/C=C/C[C@@H](C)[C@@H](O)[C@H]1C(=O)N[C@@H](CC)C(=O)N(C)CC(=O)N(C)[C@@H](CCC)C(=O)N[C@@H](C(C)C)C(=O)N(C)[C@@H](CC(C)C)C(=O)N[C@@H](CC)C(=O)N[C@H](C)C(=O)N(C)[C@@H](CC(C)C)C(=O)N(C)[C@@H](CC(C)C)C(=O)N(C)[C@@H](C(C)C)C(=O)N1C [Compound C102] (cyclo([Abu][Sar][NMeNva]V[NMeL][Abu][dA][NMeL][NMeL][NMeV][MeBmt]))

# Second part, the compound before the results:
Compound,% signal,IC50,% inhibition of CsA binding to Cyclophilin A
C/C=C/C[C@@H](C)[C@@H](O)[C@H]1C(=O)N[C@@H](CC)C(=O)N(C)CC(=O)N(C)[C@@H]([C@@H](C)CC)C(=O)N[C@@H](C(C)(C)C)C(=O)N(C)[C@@H](C)C(=O)N[C@@H](CC(C)C)C(=O)N[C@H](C)C(=O)N(C)[C@@H](CC(C)C)C(=O)N(C)[C@@H](CC(C)C)C(=O)N(C)[C@@H](C(C)C)C(=O)N1C [Compound C69] (cyclo([MeBmt][Abu][Sar][NMeI][Tle][NMeA]L[dA][NMeL][NMeL][NMeV])),0.03%,< 2000 nM,99.97%
C/C=C/C[C@@H](C)[C@@H](O)[C@H]1C(=O)N[C@@H](CC)C(=O)N(C)CC(=O)N(C)[C@@H](Cc2ccccc2)C(=O)N[C@@H](C)C(=O)N(C)CC(=O)N[C@@H](C)C(=O)N[C@H](C)C(=O)N(C)[C@@H](CC(C)C)C(=O)N(C)[C@@H](CC(C)C)C(=O)N(C)[C@@H](C(C)C)C(=O)N1C [Compound C20] (cyclo([MeBmt][Abu][Sar][NMeF]A[Sar]A[dA][NMeL][NMeL][NMeV])),2.77%,< 2000 nM,97.23%
C/C=C/C[C@@H](C)[C@@H](O)[C@H]1C(=O)N[C@@H](CC)C(=O)N(C)CC(=O)N(C)[C@@H]([C@@H](C)CC)C(=O)N[C@@H](C(C)C)C(=O)N(C)[C@@H](C)C(=O)N[C@@H](CC(C)C)C(=O)N[C@H](C)C(=O)N(C)[C@@H](CC(C)C)C(=O)N(C)[C@@H](CC(C)C)C(=O)N(C)[C@@H](C(C)C)C(=O)N1C [Compound C81] (cyclo([MeBmt][Abu][Sar][NMeI]V[NMeA]L[dA][NMeL][NMeL][NMeV])),0.76%,< 2000 nM,99.24%
C/C=C/C[C@@H](C)[C@@H](O)[C@H]1C(=O)N[C@@H](CC)C(=O)N(C)CC(=O)N(C)[C@@H](C)C(=O)N[C@@H](C(C)C)C(=O)N(C)[C@@H](C)C(=O)N[C@@H](CC(C)C)C(=O)N[C@H](C)C(=O)N(C)[C@@H](CC(C)C)C(=O)N(C)[C@@H](CC(C)C)C(=O)N(C)[C@@H](C(C)C)C(=O)N1C [Compound C82] (cyclo([MeBmt][Abu][Sar][NMeA]V[NMeA]L[dA][NMeL][NMeL][NMeV])),0.77%,< 2000 nM,99.23%
C/C=C/C[C@@H](C)[C@@H](O)[C@H]1C(=O)N[C@@H](CC)C(=O)N(C)CC(=O)N(C)[C@@H](Cc2ccc(O)cc2)C(=O)N[C@@H](CC(C)C)C(=O)N(C)[C@@H](C)C(=O)N[C@@H](C)C(=O)N[C@H](C)C(=O)N(C)[C@@H](CC(C)C)C(=O)N(C)[C@@H](CC(C)C)C(=O)N(C)[C@@H](C(C)C)C(=O)N1C [Compound C16] (cyclo([MeBmt][Abu][Sar][NMeY]L[NMeA]A[dA][NMeL][NMeL][NMeV])),2.56%,< 2000 nM,97.44%
C/C=C/C[C@@H](C)[C@@H](O)[C@H]1C(=O)N[C@@H](CC)C(=O)N(C)CC(=O)N(C)[C@@H](CCC)C(=O)N[C@@H](C(C)(C)C)C(=O)N(C)[C@@H](C)C(=O)N[C@@H](CC(C)C)C(=O)N[C@H](C)C(=O)N(C)[C@@H](CC(C)C)C(=O)N(C)[C@@H](CC(C)C)C(=O)N(C)[C@@H](C(C)C)C(=O)N1C [Compound C78] (cyclo([MeBmt][Abu][Sar][NMeNva][Tle][NMeA]L[dA][NMeL][NMeL][NMeV])),1.42%,< 2000 nM,98.58%
C/C=C/C[C@@H](C)[C@@H](O)[C@H]1C(=O)N[C@@H](CC)C(=O)N(C)CC(=O)N(C)[C@@H](Cc2ccccc2)C(=O)N[C@@H](CC(C)C)C(=O)N(C)[C@@H](C)C(=O)N[C@@H](C)C(=O)N[C@H](C)C(=O)N(C)[C@@H](CC(C)C)C(=O)N(C)[C@@H](CC(C)C)C(=O)N(C)[C@@H](C(C)C)C(=O)N1C [Compound C12] (cyclo([MeBmt][Abu][Sar][NMeF]L[NMeA]A[dA][NMeL][NMeL][NMeV])),3.22%,< 2000 nM,96.78%
C/C=C/C[C@@H](C)[C@@H](O)[C@H]1C(=O)N[C@@H](CC)C(=O)N(C)CC(=O)N(C)[C@@H](Cc2ccc(O)cc2)C(=O)N[C@@H](C(C)C)C(=O)N(C)CC(=O)N[C@@H](C)C(=O)N[C@H](C)C(=O)N(C)[C@@H](CC(C)C)C(=O)N(C)[C@@H](CC(C)C)C(=O)N(C)[C@@H](C(C)C)C(=O)N1C [Compound C32] (cyclo([MeBmt][Abu][Sar][NMeY]V[Sar]A[dA][NMeL][NMeL][NMeV])),0.14%,< 2000 nM,99.86%
